Values quoted from earlier work in paper PMC9516332 (Frontiers in Oncology, 2022).
Like-named read-outs stand apart in the source and are kept apart here.

Tests used:
Conditions in all cases: cited from earlier work
[1] = molecular target: panel of 255 wild-type kinases (Homo sapiens, UniProt O75676)
[2] = molecular target: panel of 255 wild-type kinases (Homo sapiens, UniProt P29597)
[3] = molecular target: panel of 255 wild-type kinases (Homo sapiens, UniProt P17612)
[4] = molecular target: panel of 255 wild-type kinases (Homo sapiens, UniProt Q9UPE1)
[5] = molecular target: panel of 255 wild-type kinases (Homo sapiens, UniProt P49761)
[6] = molecular target: panel of 255 wild-type kinases (Homo sapiens, UniProt P31749)
[7] = molecular target: T1, panel of 255 wild-type kinases (Homo sapiens, UniProt Q13976)
T1 sequence (Q13976 1-671): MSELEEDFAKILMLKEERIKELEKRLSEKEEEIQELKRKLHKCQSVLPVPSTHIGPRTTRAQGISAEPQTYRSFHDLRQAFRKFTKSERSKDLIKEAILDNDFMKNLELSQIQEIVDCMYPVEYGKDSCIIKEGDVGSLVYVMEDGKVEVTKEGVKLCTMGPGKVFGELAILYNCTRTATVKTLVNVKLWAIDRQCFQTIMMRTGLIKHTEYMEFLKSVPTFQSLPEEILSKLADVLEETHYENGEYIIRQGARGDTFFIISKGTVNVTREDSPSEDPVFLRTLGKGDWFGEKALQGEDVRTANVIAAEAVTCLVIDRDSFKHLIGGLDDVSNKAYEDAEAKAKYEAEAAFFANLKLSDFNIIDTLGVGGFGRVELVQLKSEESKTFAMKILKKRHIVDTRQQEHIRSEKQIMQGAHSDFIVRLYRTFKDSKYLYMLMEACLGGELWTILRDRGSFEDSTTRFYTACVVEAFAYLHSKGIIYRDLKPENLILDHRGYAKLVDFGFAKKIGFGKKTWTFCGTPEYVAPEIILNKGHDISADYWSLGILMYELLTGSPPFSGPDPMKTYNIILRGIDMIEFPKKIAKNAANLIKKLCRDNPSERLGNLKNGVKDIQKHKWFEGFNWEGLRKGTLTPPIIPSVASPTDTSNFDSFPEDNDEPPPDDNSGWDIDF

[8] = molecular target: panel of 255 wild-type kinases (Homo sapiens, UniProt P49137)
[9] = molecular target: T2, panel of 255 wild-type kinases (Homo sapiens, UniProt P54760)
T2 sequence (P54760 16-987): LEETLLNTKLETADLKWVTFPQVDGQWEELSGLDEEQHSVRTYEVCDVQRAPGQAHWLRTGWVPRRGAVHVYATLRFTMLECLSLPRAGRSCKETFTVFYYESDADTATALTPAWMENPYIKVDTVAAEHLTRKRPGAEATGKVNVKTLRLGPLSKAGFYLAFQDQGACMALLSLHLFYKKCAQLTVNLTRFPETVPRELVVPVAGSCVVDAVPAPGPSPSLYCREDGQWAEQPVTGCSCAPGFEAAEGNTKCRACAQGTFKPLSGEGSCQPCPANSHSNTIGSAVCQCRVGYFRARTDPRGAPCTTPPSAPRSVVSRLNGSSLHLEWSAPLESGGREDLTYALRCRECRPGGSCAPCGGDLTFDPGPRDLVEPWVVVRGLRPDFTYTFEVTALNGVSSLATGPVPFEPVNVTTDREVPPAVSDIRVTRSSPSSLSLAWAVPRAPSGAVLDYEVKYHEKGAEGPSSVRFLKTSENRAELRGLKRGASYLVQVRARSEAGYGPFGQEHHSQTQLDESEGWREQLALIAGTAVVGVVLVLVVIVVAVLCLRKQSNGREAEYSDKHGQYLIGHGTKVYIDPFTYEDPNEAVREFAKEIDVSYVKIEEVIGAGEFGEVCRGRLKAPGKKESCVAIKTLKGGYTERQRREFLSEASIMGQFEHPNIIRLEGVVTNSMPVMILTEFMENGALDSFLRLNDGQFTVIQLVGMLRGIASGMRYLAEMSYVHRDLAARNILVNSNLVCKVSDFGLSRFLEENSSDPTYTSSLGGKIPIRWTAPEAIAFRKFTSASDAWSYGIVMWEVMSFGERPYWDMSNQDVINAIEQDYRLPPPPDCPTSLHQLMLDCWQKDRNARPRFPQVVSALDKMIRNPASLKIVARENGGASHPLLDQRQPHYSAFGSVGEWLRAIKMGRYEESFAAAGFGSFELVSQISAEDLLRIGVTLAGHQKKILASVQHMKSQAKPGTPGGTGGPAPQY

[10] = MSK2, 1 µmol/L single concentration, ref DOI: 10.1158/1535-7163.MCT-18-0877
[11] = kinase TYK2, 1 µmol/L single concentration, ref DOI: 10.1158/1535-7163.MCT-18-0877
[12] = kinase PKACα, 1 µmol/L single concentration, ref DOI: 10.1158/1535-7163.MCT-18-0877
[13] = MSSK1, 1 µmol/L single concentration, ref DOI: 10.1158/1535-7163.MCT-18-0877
[14] = kinase CLK3, 1 µmol/L single concentration, ref DOI: 10.1158/1535-7163.MCT-18-0877
[15] = AKT1 kinase assay, 1 µmol/L single concentration, ref DOI: 10.1158/1535-7163.MCT-18-0877
[16] = kinase PGK, 1 µmol/L single concentration, ref DOI: 10.1158/1535-7163.MCT-18-0877
[17] = kinase MAPKAPK2, 1 µmol/L single concentration, ref DOI: 10.1158/1535-7163.MCT-18-0877
[18] = kinase EPHB4, 1 µmol/L single concentration, ref DOI: 10.1158/1535-7163.MCT-18-0877
[19] = kinase TYK2, 1 µmol/L single concentration, ref DOI: 10.1371/journal.pone.0092146
[20] = kinase CLK3, 1 µmol/L single concentration, ref DOI: 10.1371/journal.pone.0092146

| SMILES | %-inhibition, MSK2 [1, 10] [%] | %-inhibition at 1 µmol/L, TYK2 [2, 11] [%] | %-inhibition at 1 µmol/L, PKACα [3, 12] [%] | %-inhibition, MSSK1 [4, 13] [%] | %-inhibition at 1 µmol/L, CLK3 [5, 14] [%] | %-inhibition AKT1 [6, 15] [%] | %-inhibition at 1 µmol/L, PGK [7, 16] [%] | %-inhibition at 1 µmol/L, MAPKAPK2 [8, 17] [%] | %-inhibition at 1 µmol/L, EPHB4 [9, 18] [%] | further results |
| --- | --- | --- | --- | --- | --- | --- | --- | --- | --- | --- |
| CC#CC(=O)N1CCC[C@H]1c1nc(-c2ccc(C(=O)Nc3ccccn3)cc2)c2c(N)nccn12 [acalabrutinib] | 1.53 | 13 | -5 | -5 | -15 | -6 | -3.7 | -21 | -1.45 | – |
| CCc1cc2c(cc1N1CCC(N3CCOCC3)CC1)C(C)(C)c1[nH]c3cc(C#N)ccc3c1C2=O [alectinib] | 1.22 | 14 | 5 | 97 | -2.36 | 3.25 | -1.53 | -5.66 | 11 | – |
| COc1cc(N2CCC(N3CCN(C)CC3)CC2)ccc1Nc1ncc(Cl)c(Nc2ccccc2P(C)(C)=O)n1 [brigatinib] | – | – | – | – | – | – | – | – | – | %-inhibition, MSK2 [1]: 10%; %-inhibition at 1 µmol/L, TYK2 [2]: 23%; %-inhibition at 1 µmol/L, PKACα [3]: 17%; %-inhibition, MSSK1 [4]: 5.3%; %-inhibition at 1 µmol/L, CLK3 [5]: 33%; %-inhibition AKT1 [6]: 1.5%; %-inhibition at 1 µmol/L, PGK [7]: 60%; %-inhibition at 1 µmol/L, MAPKAPK2 [8]: -14%; %-inhibition at 1 µmol/L, EPHB4 [9]: 9% |
| Cc1cc(Nc2ncc(Cl)c(Nc3ccccc3S(=O)(=O)C(C)C)n2)c(OC(C)C)cc1C1CCNCC1 [ceritinib] | 2.2 | 13 | -8 | 36 | 36 | -8 | 38 | -14 | 3.73 | – |
| O=C(c1ccc(F)c(F)c1Nc1ccc(I)cc1F)N1CC(O)([C@@H]2CCCCN2)C1 [cobimetinib] | -0.0695 | 6.35 | -10 | 1.46 | 4 | -7 | 2.54 | -7 | -2.41 | – |
| C[C@@H](Oc1cc(-c2cnn(C3CCNCC3)c2)cnc1N)c1c(Cl)ccc(F)c1Cl [crizotinib] | – | – | – | – | – | – | – | – | – | %-inhibition, MSK2 ([1]; MSK2, 1 µmol/L single concentration, ref DOI: 10.1371/journal.pone.0092146): -1.8%; %-inhibition at 1 µmol/L, TYK2 [2, 19]: 21%; %-inhibition at 1 µmol/L, PKACα ([3]; kinase PKACα, 1 µmol/L single concentration, ref DOI: 10.1371/journal.pone.0092146): -6%; %-inhibition at 1 µmol/L, CLK3 [5, 20]: -5%; %-inhibition AKT1 ([6]; AKT1 kinase assay, 1 µmol/L single concentration, ref DOI: 10.1371/journal.pone.0092146): -7%; %-inhibition at 1 µmol/L, PGK ([7]; kinase PGK, 1 µmol/L single concentration, ref DOI: 10.1371/journal.pone.0092146): -2.6%; %-inhibition at 1 µmol/L, MAPKAPK2 ([8]; kinase MAPKAPK2, 1 µmol/L single concentration, ref DOI: 10.1371/journal.pone.0092146): -17%; %-inhibition at 1 µmol/L, EPHB4 ([9]; kinase EPHB4, 1 µmol/L single concentration, ref DOI: 10.1371/journal.pone.0092146): 83% |
| CC(C)(C)c1nc(-c2cccc(NS(=O)(=O)c3c(F)cccc3F)c2F)c(-c2ccnc(N)n2)s1 [dabrafenib] | – | – | – | – | – | – | – | – | – | %-inhibition at 1 µmol/L, TYK2 [2, 19]: 10%; %-inhibition, MSSK1 ([4]; MSSK1, 1 µmol/L single concentration, ref DOI: 10.1371/journal.pone.0092146): 2.55%; %-inhibition at 1 µmol/L, CLK3 [5, 20]: 17% |
| C=CC(=O)N1CCC[C@@H](n2nc(-c3ccc(Oc4ccccc4)cc3)c3c(N)ncnc32)C1 [ibrutinib] | -2 | 7 | -11 | 1.54 | – | -9 | 1.89 | -13 | 27 | – |
| CO[C@@H]1[C@H](N(C)C(=O)c2ccccc2)C[C@H]2O[C@]1(C)n1c3ccccc3c3c4c(c5c6ccccc6n2c5c31)C(=O)NC4 [midostaurin] | 77 | – | 93 | -9 | – | – | 98 | -12 | 1.2 | – |
| C=CC(=O)Nc1cc(Nc2nccc(-c3cn(C)c4ccccc34)n2)c(OC)cc1N(C)CCN(C)C [osimertinib] | 0.681 | 9 | -11 | 0.582 | 6 | -9 | 3.61 | -9 | -3 | – |
